Source: paper doi:10.1101/2024.03.25.586180v1 (biorxiv, 2024)

Target: T1, BT2 (Bacteroides thetaiotaomicron, UniProt Q8A5T1)
T1 sequence (Q8A5T1 20-290): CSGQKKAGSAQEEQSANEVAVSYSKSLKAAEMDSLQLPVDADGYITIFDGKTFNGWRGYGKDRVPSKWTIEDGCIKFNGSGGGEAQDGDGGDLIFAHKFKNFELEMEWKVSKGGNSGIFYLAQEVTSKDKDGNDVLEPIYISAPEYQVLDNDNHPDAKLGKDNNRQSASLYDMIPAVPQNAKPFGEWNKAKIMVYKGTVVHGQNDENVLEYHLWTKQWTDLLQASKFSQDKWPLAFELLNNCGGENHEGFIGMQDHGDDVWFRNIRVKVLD
Test: 1H-NMR, elimination
Format: biochemical
Settings: elimination to 3-keto-2-hydroxy-glucal

1H-NMR, elimination: while AL/BT2 do so on the α anomer
Structure (SMILES): CO[C@H]1O[C@H](CO)[C@@H](O)C(=O)[C@H]1O [3-keto methyl α-glucoside]
